Data from patent US4130709A, “Pleuromutilin glycoside derivatives” (Eli Lilly and Company, priority 1977, dated 1978).
Converted amounts (≈) assume the structure as drawn. Like-named read-outs stand apart in the source and are kept apart here.

Columns and labels:
[1] = toxicity (LD50) on intraperitoneal injection in mice; conditions: mouse, in vivo, ip
[2] = system: Pseudomonas sp. (fish); test: in vitro activity against Pseudomonas sp. (fish); assay type: cell-based
Description: P. multocida, for example, is a causative agent of respiratory infection in cattle, poultry and swine. P. hemolytica is a major cause of respiratory disease in cattle. The activity of representative compounds of this invention (R^2 =H in group tested) against P. multocida and the Pseudomonas sp. is summarized in Table VI.

[3] = system: Bacteroides melaninogenicus 2736; test: standard agar-dilution test, anaerobic bacteria; assay type: cell-based; conditions: Bacteroides melaninogenicus 2736; 24-hour incubation; read-out: MIC
[4] = system: Actinomyces israelii; test: standard agar-dilution test, anaerobic bacteria; assay type: cell-based; conditions: 24-hour incubation
[5] = system: Bacteroides corrodens; test: standard agar-dilution test, anaerobic bacteria; assay type: cell-based; conditions: Eikenella corrodens; Bacteroides corrodens; 24-hour incubation; read-out: MIC
[6] = system: Pasteurella multocida (bovine); test: in vitro activity against Pasteurella multocida (bovine); assay type: cell-based
Description: (§1) The activity of representative compounds of this invention (R^2 =H in group tested) against P. multocida and the Pseudomonas sp. is summarized in Table VI.

[7] = system: Streptococcus pneumoniae Park I; test: in vivo antimicrobial activity, experimental infection in mice, Streptococcus pneumoniae Park I; conditions: sc, read-out: ED50 × 2
Protocol: (§2) Typical compounds of the present invention have shown in vivo antimicrobial activity against experimental bacterial infections. When two doses of these compounds were administered to mice in illustrative infections, the activity observed was measured as an ED50 value [effective dose in mg/kg to protect 50% of the test animals; see Warren Wick, et al., J. Bacteriol. 81, 233-235 (1961)].

[8] = system: Peptostreptococcus anaerobius; test: standard agar-dilution test, anaerobic bacteria; assay type: cell-based; conditions: 24-hour incubation
[9] = system: Peptostreptococcus intermedius; test: standard agar-dilution test, anaerobic bacteria; assay type: cell-based; conditions: Peptostreptococcus intermedius; 24-hour incubation; read-out: MIC
[10] = system: Clostridium septicum; test: standard agar-dilution test, anaerobic bacteria; assay type: cell-based; conditions: 24-hour incubation
Protocol: (§3) Table IV summarizes the activity of typical compounds of this invention, as determined by the standard agar-dilution test.
(§4) *Endpoint read after 24-hour incubation

[11] = system: Bacteroides thetaiotaomicron; test: standard agar-dilution test, anaerobic bacteria; assay type: cell-based; conditions: 24-hour incubation
Protocol: as §3, §4

[12] = system: Bacteroides melaninogenicus 1856/28; test: standard agar-dilution test, anaerobic bacteria; assay type: cell-based; conditions: Prevotella intermedia; Bacteroides melaninogenicus 1856/28; 24-hour incubation; read-out: MIC
[13] = system: Fusobacterium necrophorum; test: standard agar-dilution test, anaerobic bacteria; assay type: cell-based; conditions: 24-hour incubation, read-out: MIC
[14] = system: Streptococcus pneumoniae B1492; test: in vivo antimicrobial activity, experimental infection in mice, Streptococcus pneumoniae B1492; conditions: sc, two doses, infecting challenge 340 × LD50 (ip), read-out: ED50 × 2
Protocol: as §2

[15] = system: Bacteroides vulgatis; test: standard agar-dilution test, anaerobic bacteria; assay type: cell-based; conditions: Bacteroides vulgatis; 24-hour incubation; read-out: MIC
[16] = system: Bacteroides fragilis 111; test: standard agar-dilution test, anaerobic bacteria; assay type: cell-based; conditions: Bacteroides fragilis 111; 24-hour incubation; read-out: MIC
[17] = system: Treponema hyodysenteriae; test: in vitro agar plate test against Treponema hyodysenteriae; conditions: four days anaerobic
[18] = system: Staphylococcus aureus 3055; test: in vivo antimicrobial activity, experimental infection in mice, Staphylococcus aureus 3055; conditions: two doses, read-out: ED50 × 2
Protocol: as §2

[19] = system: Bacteroides fragilis 1936B; test: standard agar-dilution test, anaerobic bacteria; assay type: cell-based; conditions: Bacteroides fragilis 1936B; 24-hour incubation; read-out: MIC
[20] = system: Staphylococcus aureus (H-Heatley) NRRL B-314; test: in vitro turbidometric assay (Autoturb Microbiological Assay System) against Staphylococcus aureus; assay type: cell-based; conditions: nutrient broth pH 7, approximately 4 hours at 37° C., A-40104 factor A as standard
Protocol: The compounds are conveniently tested against a typical gram-positive organism, Staphylococcus aureus, using a turbidometric assay on a semi-automated system (Autoturb Microbiological Assay System, Elanco) described by N. R. Kuzel and F. W. Kavanagh in J. Pharmaceut. Sci, 60 (5), 764 and 767 (1971). In testing these compounds, the following parameters were used: Staphylococcus aureus (H-Heatley) NRRL B-314 in a nutrient broth medium (pH 7), incubated for approximately 4 hours at 37° C. Test samples and A-40104 factor A, which is used as a standard, were dissolved in water. The standard was presented to the Autoturb carrousel at concentrations of 1.25, 2.50, 3.75, 5.00 and 6.25 mcg/ml. Test compounds were diluted to contain approximately 2.5 to 5.0 mcg of activity per ml, as presented to the carrousel. The units of activity of some of the typical compounds of this invention (R^2 =H in group tested) in this in vitro assay are summarized in Table I

[21] = system: Spiroplasma citri; test: in vitro inhibition of Spiroplasma citri measured by a color reaction; assay type: cell-based
Protocol: In another important aspect, the compounds of this invention are active against Spiroplasmas. Spiroplasma citri is the causative agent of citrus-stubborn disease; another Spiroplasma, corn-stunt Spiroplasma, affects the growth of corn. Table VII summarizes the in vitro activity of representative compounds of the present invention (R^2 =H in this group) against Spiroplasma citri. In this test, inhibition of S. citri is measured by a color reaction. Red (R) includes complete inhibition; red-orange (RO) indicates partial inhibition; and yellow (Y) indicates no inhibition.

[22] = system: Streptococcus pyrogenes C203; test: in vivo antimicrobial activity, experimental infection in mice, Streptococcus pyrogenes C203; conditions: sc, two doses, infecting challenge 370 × LD50 (ip), read-out: ED50 × 2
Protocol: as §2

[23] = system: Clostridium perfringens; test: microbe, parasite or virus in culture; assay type: cell-based; conditions: 24 h
[24] = system: Peptococcus prevoti; test: standard agar-dilution test, anaerobic bacteria; assay type: cell-based; conditions: Peptococcus prevoti; 24-hour incubation; read-out: MIC
[25] = system: Pasteurella multocida (turkey); test: in vitro activity against Pasteurella multocida (turkey); assay type: cell-based
Description: as §1

[26] = system: Mycoplasma hyorhinis; test: in vitro broth-dilution studies, mycoplasma; assay type: cell-based
Description: (§5) The minimal inhibitory concentrations (MIC's) of a number of typical compounds of the present invention (R^2 =H in group tested) against various mycoplasma species, as determined by in vitro broth-dilution studies, are summarized in Table V.

[27] = system: Mycoplasma hyopneumoniae; test: in vitro broth-dilution studies, mycoplasma; assay type: cell-based; conditions: Mesomycoplasma hyopneumoniae
Description: as §5

[28] = system: Mycoplasma synoviae; test: in vitro broth-dilution studies, mycoplasma; assay type: cell-based; conditions: Mycoplasmopsis synoviae
Description: as §5

[29] = system: Mycoplasma gallisepticum; test: in vitro broth-dilution studies, mycoplasma; assay type: cell-based; conditions: Mycoplasmoides gallisepticum
Description: as §5

[30] = system: Bacteroides fragilis 1877; test: standard agar-dilution test, anaerobic bacteria; assay type: cell-based; conditions: Bacteroides fragilis 1877; 24-hour incubation; read-out: MIC
[31] = system: Pasteurella hemolytica; test: in vitro tests against Pasteurella hemolytica; assay type: cell-based
[32] = system: Eubacterium aerofaciens; test: standard agar-dilution test, anaerobic bacteria; assay type: cell-based; conditions: Collinsella aerofaciens; Eubacterium aerofaciens; 24-hour incubation; read-out: MIC
[33] = system: Fusobacterium symbiosum; test: standard agar-dilution test, anaerobic bacteria; assay type: cell-based; conditions: Fusobacterium symbiosum; 24-hour incubation; read-out: MIC
[34] = system: Peptococcus asaccharolyticus; test: standard agar-dilution test, anaerobic bacteria; assay type: cell-based; conditions: Peptoniphilus asaccharolyticus, 24-hour incubation

SMILES: C=C[C@]1(C)C[C@@H](OC(=O)CS[C@@H]2OC[C@@H](O)[C@H](O)[C@H]2O)[C@]2(C)[C@H](C)CC[C@]3(CCC(=O)[C@H]32)[C@@H](C)[C@@H]1O [Compound 2]
- LD50 [1]: > 1500 mg/kg
- MIC [2]: 6.25 µg/mL (≈ 11.9 µM)
- MIC [3]: 1 µg/mL (≈ 1.9 µM)
- MIC [4]: ≤ 0.5 µg/mL
- MIC [5]: 1 µg/mL (≈ 1.9 µM)
- MIC [6]: 3.12 µg/mL (≈ 5.92 µM)
- ED50 [7]: 65 mg/kg
- MIC [8]: ≤ 0.5 µg/mL
- MIC [9]: ≤ 0.5 µg/mL
- MIC [10]: 2 µg/mL (≈ 3.8 µM)
- MIC [11]: 1 µg/mL (≈ 1.9 µM)
- MIC [12]: > 128 µg/mL
- MIC [13]: ≤ 0.5 µg/mL
- ED50 [14]: 15.3 mg/kg
- MIC [15]: 1 µg/mL (≈ 1.9 µM)
- MIC [16]: 1 µg/mL (≈ 1.9 µM)
- inhibition of growth ([17]; 0.5 mcg/ml agar concentration): inhibited growth
- inhibition of growth ([17]; 5.0 mcg/ml agar concentration): inhibited growth
- inhibition of growth ([17]; 50 mcg/ml agar concentration): inhibited growth
- ED50 ([18]; Staphylococcus aureus, 3055, po, oral, infecting challenge 500 × LD50 (ip)): 32.4 mg/kg
- ED50 ([18]; Staphylococcus aureus, 3055, po, oral, infecting challenge 3400 × LD50 (ip)): 44 mg/kg
- ED50 ([18]; Staphylococcus aureus, 3055, sc, sc, infecting challenge 82 × LD50 (ip)): 1.85 mg/kg
- MIC [19]: 1 µg/mL (≈ 1.9 µM)
- Units of Activity [20]: 995 to 1003 µg/mg
- Activity (color reaction) ([21]; 0.01 ppm): RO,RO
- Activity (color reaction) ([21]; 0.05 ppm): --,R
- Activity (color reaction) ([21]; 0.1 ppm): R,R
- Activity (color reaction) ([21]; 1.0 ppm): R,R
- ED50 [22]: 11.4 mg/kg
- MIC [23]: 2 µg/mL (≈ 3.8 µM)
- MIC [24]: ≤ 0.5 µg/mL
- MIC [25]: 6.25 µg/mL (≈ 11.9 µM)
- MIC [26]: 0.39 µg/mL (≈ 0.74 µM)
- MIC [27]: ≤ 0.15 µg/mL
- MIC [28]: 0.78 µg/mL (≈ 1.48 µM)
- MIC [29]: 0.78 µg/mL (≈ 1.48 µM)
- MIC [30]: 1 µg/mL (≈ 1.9 µM)
- MIC [31]: 12.5 µg/mL (≈ 23.7 µM)
- MIC [32]: 1 µg/mL (≈ 1.9 µM)
- MIC [33]: 2 µg/mL (≈ 3.8 µM)
- MIC [34]: ≤ 0.5 µg/mL
